Results published in ChEMBL document CHEMBL6153095, “Dihydroaurones and Isoflavan Derivatives from the Roots of Glycyrrhiza asymmetrica” (J Nat Prod, 2025).
Active and inactive are the calls of the source.

Columns and labels:
Assay type in all cases: functional, cell-based
HeLa = experiment: Cytotoxicity against human HeLa cells assessed as reduction in cell viability at 10 uM by MTT assay
HepG2 = experiment: Cytotoxicity against human HepG2 cells assessed as reduction in cell viability at 10 uM by MTT assay
A549 = experiment: Cytotoxicity against human A549 cells assessed as reduction in cell viability at 10 uM by MTT assay
MCF7 = experiment: Cytotoxicity against human MCF7 cells assessed as reduction in cell viability at 10 uM by MTT assay

Measured: Activity

COc1ccc([C@@H]2COc3c(ccc(O)c3CC=C(C)C)C2=O)c(O)c1
inactive: all assays above

CC(C)=CCc1c(O)ccc([C@@H]2COc3c(ccc(O)c3CC=C(C)C)C2)c1O
inactive: all assays above

CC(C)=CCc1c(O)ccc2c1OC[C@H](c1ccc(O)cc1O)C2
inactive: all assays above

CC(C)=CCc1c(O)ccc([C@@H]2COc3c(ccc(O)c3CC=C(C)C)C2=O)c1O
inactive: all assays above

CC(C)=CCc1c(O)ccc2c1OC[C@@H](c1ccc(O)cc1O)C2=O
inactive: all assays above

CC(C)=CCc1cc2c(cc1O)OC[C@H](c1ccc(O)cc1O)[C@@H]2c1cc([C@H]2COc3c(ccc(O)c3CC=C(C)C)C2)c(O)cc1O
inactive: all assays above

COc1ccc(-c2coc3c(CC=C(C)C)c(O)ccc3c2=O)cc1
inactive: all assays above

O=C(O)/C=C1/c2ccc(O)cc2O[C@@H]1Cc1ccc(O)cc1
inactive: all assays above

CC(C)=CCc1c(O)ccc2c1OC[C@H](c1cc([C@@H]3c4ccc(O)c(CC=C(C)C)c4OC[C@@H]3c3ccc(O)cc3O)c(O)cc1O)C2
inactive: all assays above

COc1cc(O)ccc1[C@H]1COc2cc(O)ccc2[C@H]1c1cc2c(c(CC=C(C)C)c1O)OC[C@@H](c1ccc(O)cc1O)C2
inactive: all assays above

COc1ccc(-c2coc3cc(O)ccc3c2=O)cc1
inactive: all assays above

CC(C)(O)CCc1c(O)ccc2c1OC[C@H](c1ccc(O)cc1O)C2
inactive: all assays above

COc1ccc([C@@H]2COc3cc(O)ccc3C2)c(O)c1
inactive: all assays above

CC(C)=CCc1cc([C@H]2Oc3cc(O)ccc3C(=O)[C@@H]2O)ccc1O
inactive: all assays above

CC1(C)CCc2c(ccc3c2OC[C@@H](c2ccc(O)cc2O)C3)O1
inactive: all assays above

CC(C)=CCc1cc([C@H]2Oc3cc(O)cc(O)c3C(=O)[C@@H]2O)ccc1O
inactive: all assays above

CC(C)=CCc1cc([C@@H]2CC(=O)c3ccc(O)cc3O2)ccc1O
inactive: all assays above

CC1(C)CCc2c(ccc3c2OC[C@@H](c2ccc(O)cc2O)C3=O)O1
inactive: all assays above

COc1ccc(C2COc3cc4c(cc3C2)C=CC(C)(C)O4)c(O)c1 (configuration not stated)
inactive: all assays above

CC(C)=CCc1c(O)cc(O)cc1/C=C/c1ccc(O)cc1
inactive: all assays above

COc1ccc(C[C@H]2Oc3cc(O)ccc3/C2=C/C(=O)O)cc1
inactive: all assays above

COc1ccc([C@H]2COc3c(ccc(O)c3CC=C(C)C)C2)c(O)c1
inactive: all assays above

CC(C)=CCc1cc2c(cc1O)OC[C@H](c1ccc(O)cc1O)[C@@H]2c1cc2c(c(CC=C(C)C)c1O)OC[C@@H](c1ccc(O)cc1O)C2
inactive: all assays above
